The values that follow come from patent US8258177B2, “4-((phenoxyalkyl)thio)-phenoxyacetic acids and analogs” (Janssen Pharmaceutica, N.V., priority 2003, dated 2012).

Values joined by “and” are separate entries in the source; they are usually repeats but may differ in a detail not shown here. Identical values can stand only once.

The first assay has as its system differentiated THP-1 monocytes.
Assay: not given
The note with it: cited from earlier work.
Regarding `Cc1cc(SCc2sc(-c3ccc(C(F)(F)F)cc3)nc2C)ccc1OCC(=O)O` [GW501516], the “ABCA1 mRNA expression” value is “induced ABCA1 mRNA expression” and the cholesterol efflux result is “enhanced cholesterol efflux”.

The next assay addresses T1, PPAR delta (Homo sapiens, UniProt Q03181).
T1 sequence (Q03181 211-441 limits assumed): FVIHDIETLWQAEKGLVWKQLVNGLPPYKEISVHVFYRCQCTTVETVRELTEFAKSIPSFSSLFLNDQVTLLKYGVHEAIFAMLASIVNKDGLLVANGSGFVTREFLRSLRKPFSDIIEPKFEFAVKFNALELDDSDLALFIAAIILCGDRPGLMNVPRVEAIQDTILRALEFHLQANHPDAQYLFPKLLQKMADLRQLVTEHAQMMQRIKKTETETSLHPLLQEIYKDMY
Nature of the assay: Transfection assay for PPAR receptors (PPAR-Gal4 / Gal4-Luciferase reporter in HEK293 cells). The format is cell-based. The note with it: HEK293 cells co-transfected with PPAR-Gal4 receptor and Gal4-Luciferase reporter; 24 hours; multiple values = multiple measurements; read-out: EC50 (PPAR delta). The method, then: Transfection Assay Method for PPAR Receptors
HEK293 cells were grown in DMEM/F-12 Media supplemented with 10% FBS and glutamine (GIBCOBRL). The cells were co-transfected with DNA for PPAR-Gal4 (PPARα, γ or δ) receptor and Gal4-Luciferase Reporter using the DMRIE-C Reagent. On the following day, the medium was replaced with 5% Charcoal treated FBS growth medium. After six hours, cells were trypsinized and seeded at a density of 50,000 cell/well into 96 well plates and incubated overnight at 37° C. in a 5% CO2 incubator. Cells were then treated with test compounds or vehicle and incubated for 24 hours at 37° C. in a 5% CO2 incubator. Luciferase activity was assayed using the Steady-Glo Luciferase Assay Kit from Promega. […] Steady-Glo Luciferase Assay Kit was purchased from Promega Part# E254B.
Regarding `C=C(COc1ccc(OC)cc1)CSc1ccc(OCC(=O)O)c(C)c1` [Compound 9, {4-[2-(4-Methoxy-phenoxymethyl)-allylsulfanyl]-2-methyl-phenoxy}-acetic acid], the EC50 stood at 0.216 µM.

Take `C=C(COc1ccc(C(F)(F)F)cc1)CSc1ccc(CC(=O)O)cc1Cl` [Compound 22, {3-Chloro-4-[2-(4-trifluoromethyl-phenoxymethyl)-allylsulfanyl]-phenyl}-acetic acid]: the EC50 was 0.0289 µM and 0.0683 µM. As for `C=C(COc1ccccc1)CSc1ccc(OCC(=O)O)c(C)c1` [Compound 3, [2-Methyl-4-(2-phenoxymethyl-allylsulfanyl)-phenoxy]-acetic acid], the EC50 is 0.711 µM.

Take `Cc1cc(SCC(=CC#N)COc2ccc(C(F)(F)F)cc2)ccc1OCC(=O)O` [Compound 17, {4-[3-Cyano-2-(4-trifluoromethyl-phenoxymethyl)-allylsulfanyl]-2-methyl-phenoxy}-acetic acid]: the EC50 is 0.0321 µM and 0.0387 µM. As to `C=C(COc1ccc(Cl)cc1Cl)CSc1ccc(OCC(=O)O)c(C)c1` [Compound 7, {4-[2-(2,4-Dichloro-phenoxymethyl)-allylsulfanyl]-2-methyl-phenoxy}-acetic acid], the EC50 was 0.138 µM. For the molecule `Cc1cc(SCC(=Cc2cccc3ccccc23)COc2ccc(C(F)(F)F)cc2)ccc1OCC(=O)O` [Compound 19, {2-Methyl-4-[3-naphthalen-1-yl-2-(4-trifluoromethyl-phenoxymethyl)-allylsulfanyl]-phenoxy}-acetic acid], the EC50 is 0.0677 µM and 0.0497 µM. In the case of `Cc1cc(SCC2(COc3ccc(C(F)(F)F)cc3)COC(C)(C)O2)ccc1OCC(=O)O` (centres unmarked) [Compound 27, {4-[2,2-Dimethyl-4-(4-trifluoromethyl-phenoxymethyl)-[1,3]dioxolan-4-ylmethylsulfanyl]-2-methyl-phenoxy}-acetic acid], the EC50 came out at 0.119 µM.

As for `C=C(CCSc1ccc(OCC(=O)O)c(C)c1)Oc1ccc(C(F)(F)F)cc1` [Compound 20, {2-Methyl-4-[3-(4-trifluoromethyl-phenoxy)-but-3-enylsulfanyl]phenoxy}-acetic acid], the EC50 amounted to 0.194 µM. Turning to `C=C(COc1ccc(Cl)cc1)CSc1ccc(OCC(=O)O)c(C)c1` [Compound 5, {4-[2-(4-Chloro-phenoxymethyl)-allylsulfanyl]-2-methyl-phenoxy}-acetic acid], the EC50 is 0.0792 µM and 0.0518 µM. The same measure, in the same setting: the figure for `C=C(COc1ccc(N(C)C)cc1)CSc1ccc(OCC(=O)O)c(C)c1` [Compound 10, {4-[2-(4-Dimethylamino-phenoxymethyl)-allylsulfanyl]-2-methyl-phenoxy}-acetic acid] is 0.238 µM; for `Cc1cc(SCC(COc2ccc(C(F)(F)F)cc2)=C(F)F)ccc1OCC(=O)O` [Compound 16, {4-[3,3-Difluoro-2-(4-trifluoromethyl-phenoxymethyl)-allylsulfanyl]-2-methyl-phenoxy}-acetic acid] it is 0.0878 µM and 0.0514 µM. Consider `C=C(CSc1ccc(OCC(=O)O)c(C)c1)Oc1ccc(C(F)(F)F)cc1` [Compound 21, {2-Methyl-4-[2-(4-trifluoromethyl-phenoxy)-allylsulfanyl]-phenoxy}-acetic acid], for which the EC50 was above 1 µM. Same read-out and setting: the result for `C=C(COc1ccc(C(F)(F)F)cc1)CSc1ccc(OCC(=O)O)c(Cl)c1` [Compound 11, {2-Chloro-4-[2-(4-trifluoromethyl-phenoxymethyl)-allylsulfanyl]-phenoxy}-acetic acid] reads 0.0451 µM and 0.0483 µM. Take `CCCC(CCC)(COc1ccc(C(F)(F)F)cc1)CSc1ccc(OCC(=O)O)c(C)c1` [Compound 24, {2-Methyl-4-[2-propyl-2-(4-trifluoromethyl-phenoxymethyl)-pentylsulfanyl]phenoxy}-acetic acid]: the EC50 was 0.0097 µM and 0.0074 µM. Regarding `C=C(COc1ccc(OC(F)(F)F)cc1)CSc1ccc(OCC(=O)O)c(C)c1` [Compound 4, {2-Methyl-4-[2-(4-trifluoromethoxy-phenoxymethyl)-allylsulfanyl]-phenoxy}-acetic acid], the EC50 was 0.029 µM and 0.0278 µM.

Regarding `C=C(COc1ccc(Cl)c(Cl)c1)CSc1ccc(OCC(=O)O)c(C)c1` [Compound 6, {4-[2-(3,4-Dichloro-phenoxymethyl)-allylsulfanyl]-2-methyl-phenoxy}-acetic acid], the EC50 was 0.0566 µM and 0.0429 µM.

In the case of `Cc1cc(SCC(F)(F)COc2ccc(C(F)(F)F)cc2)ccc1OCC(=O)O` [Compound 25, {4-[2,2-Difluoro-3-(4-trifluoromethyl-phenoxy)-propylsulfanyl]-2-methyl-phenoxy}-acetic acid], the EC50 was 0.147 µM. In the case of `CCC(O)(COc1ccc(C(F)(F)F)cc1)CSc1ccc(OCC(=O)O)c(C)c1` (centres unmarked) [Compound 28, {4-[2-Hydroxy-2-(4-trifluoromethyl-phenoxymethyl)butylsulfanyl]-2-methyl-phenoxy}-acetic acid], the EC50 amounted to 0.122 µM.

Consider `C=C(COc1ccc(C(F)(F)F)cc1)COc1ccc(OCC(=O)O)c(C)c1` [Compound 29], for which the EC50 is 0.249 µM. On to `CC(C)=C(COc1ccc(C(F)(F)F)cc1)CSc1ccc(OCC(=O)O)c(C)c1` [Compound 15, {2-Methyl-4-[3-methyl-2-(4-trifluoromethyl-phenoxymethyl)-but-2-enylsulfanyl]-phenoxy}-acetic acid], for which the EC50 was 0.0227 µM and 0.0221 µM.

The same assay, now with this note: value printed in running text after characterisation data; multiple values = multiple measurements; read-out: PPARdleta EC50.
As to `C=C(COc1ccc(C(F)(F)F)cc1)CSc1ccc(Cl)cc1OCC(=O)O` [[5-chloro-2-[[2-[[4-(trifluoromethyl)phenoxy]methyl]-2-propenyl]thio]phenoxy]-acetic acid], the EC50 is above 3 µM. As to `C=C(COc1ccc(C(C)=O)c(O)c1CCC)CSc1ccc(OCC(=O)O)c(C)c1` [{4-[2-(4-acetyl-3-hydroxy-2-propyl-phenoxymethyl)-allylsulfanyl]-2-methyl-phenoxy}-acetic acid], the EC50 was 0.013 µM and 0.018 µM.

For `C=C(COc1ccc(C(F)(F)F)cn1)CSc1ccc(OCC(=O)O)c(C)c1` [[2-methyl-4-[[2-[[[5-(trifluoromethyl)-2-pyridinyl]oxy]methyl]-2-propenyl]thio]phenoxy]-acetic acid], the EC50 was above 3 µM. As for `C=C(COc1ccc(C(F)(F)F)cc1)C[S+]([O-])c1ccc(OCC(=O)O)c(C)c1` (centres unmarked) [[2-methyl-4-[[2-[[4-(trifluoromethyl)phenoxy]methyl]-2-propenyl]sulfinyl]phenoxy]-acetic acid], the EC50 is above 3 µM.
